Experiments:
Assay in all cases: Test C greenhouse herbicide test, pre- and postemergence
Format in all cases: in vivo
[1] = test system: johnsongrass (Sorghum halepense)
From the text: (§1) Seeds of plant species selected from blackgrass (Alopecurus myosuroides), ryegrass, Italian (Italian ryegrass, Lolium multiflorum), wheat (winter wheat, Triticum aestivum), galium (catchweed bedstraw, Galium aparine), corn (Zea mays), large crabgrass, large (large crabgrass, Digitaria sanguinalis), foxtail, giant (giant foxtail, Setaria faberii), johnsongrass (Sorghum halepense), lambsquarters (Chenopodium album), morningglory (Ipomoea coccinea), nutsedge, yellow (yellow nutsedge, Cyperus esculentus), pigweed (Amaranthus retroflexus), ragweed (common ragweed, Ambrosia elatior), soybean (Glycine max), barnyardgrass (Echinochloa crus-galli), oilseed rape (Brassica napus), waterhemp (common waterhemp, Amaranthus rudis), and velvetleaf (Abutilon theophrasti) were planted into a blend of loam soil and sand and treated preemergence with test chemicals formulated in a non-phytotoxic solvent mixture which included a surfactant.
(§2) At the same time, plants selected from these crop and weed species and also chickweed (common chickweed, Stellaria media), kochia (Kochia scoparia), and oat, wild (wild oat, Avena fatua), were planted in pots containing Redi-Earth® planting medium (Scotts Company, 14111 Scottslawn Road, Marysville, Ohio 43041) comprising spaghnum peat moss, vermiculite, wetting agent and starter nutrients and treated with postemergence applications of test chemicals formulated in the same manner. Plants ranged in height from 2 to 18 cm (1- to 4-leaf stage) for postemergence treatments. Treated plants and controls were maintained in a greenhouse for 13 to 15 d, after which time all species were compared to controls and visually evaluated. Plant response ratings, summarized in Table C, are based on a scale of 0 to 100 where 0 is no effect and 100 is complete control. A dash (-) response means no test result.

[2] = test system: barnyardgrass (Echinochloa crus-galli)
From the text: as §1, §2

[3] = test system: nutsedge, yellow (yellow nutsedge, Cyperus esculentus)
From the text: as §1, §2

[4] = test system: foxtail, giant (giant foxtail, Setaria faberii)
From the text: as §1, §2

[5] = test system: ragweed (common ragweed, Ambrosia elatior)
From the text: as §1, §2

[6] = test system: wheat (winter wheat, Triticum aestivum)
From the text: as §1, §2

[7] = test system: pigweed (Amaranthus retroflexus)
From the text: as §1, §2

[8] = test system: crabgrass, large (large crabgrass, Digitaria sanguinalis)
From the text: as §1, §2

[9] = test system: oilseed rape (Brassica napus)
From the text: as §1, §2

[10] = test system: galium (catchweed bedstraw, Galium aparine)
From the text: as §1, §2

[11] = test system: lambsquarters (Chenopodium album)
From the text: as §1, §2

[12] = test system: blackgrass (Alopecurus myosuroides)
From the text: as §1, §2

[13] = test system: soybean (Glycine max)
From the text: as §1, §2

[14] = test system: morningglory (Ipomoea coccinea)
From the text: as §1, §2

[15] = test system: waterhemp (common waterhemp, Amaranthus rudis)
From the text: as §1, §2

[16] = test system: velvetleaf (Abutilon theophrasti)
From the text: as §1, §2

[17] = Postemergence, 31 g ai/ha, 0 to 100 scale (0 no effect, 100 complete control)
[18] = Postemergence, 125 g ai/ha, scale 0 to 100, 0 is no effect, 100 is complete control
[19] = Postemergence, 250 g ai/ha, scale 0 to 100, 0 no effect, 100 complete control, 13 to 15 d
[20] = postemergence, 62 g ai/ha, scale 0 to 100, 0 no effect, 100 complete control

## Cc1cc(C)c2ccccc2c1-c1c(O)cnn(C)c1=O [Compound 51]
[1]; [17]
  Johnsongrass plant response rating: 0
[1]; [18]
  Plant response rating, Johnsongrass: 0
[1]; [19]
  Plant response rating, Johnsongrass: 0
[1]; [20]
  Johnsongrass plant response rating: 0
[2]; [17]
  Barnyardgrass plant response rating: 5
[2]; [18]
  Plant response rating, Barnyardgrass: 10
[2]; [19]
  Plant response rating, Barnyardgrass: 20
[2]; [20]
  Barnyardgrass plant response rating: 5
[3]; [17]
  Nutsedge, Yellow plant response rating: 35
[3]; [18]
  Plant response rating, Nutsedge, Yellow: 85
[3]; [19]
  Plant response rating, Nutsedge, Yellow: 90
[3]; [20]
  Nutsedge, Yellow plant response rating: 70
[4]; [17]
  Foxtail, Giant plant response rating: 5
[4]; [18]
  Plant response rating, Foxtail, Giant: 15
[4]; [19]
  Plant response rating, Foxtail, Giant: 35
[4]; [20]
  Foxtail, Giant plant response rating: 5
[5]; [17]
  Ragweed plant response rating: 10
[5]; [18]
  Plant response rating, Ragweed: 5
[5]; [19]
  Plant response rating, Ragweed: 25
[5]; [20]
  Ragweed plant response rating: 5
[6]; [17]
  Wheat plant response rating: 0
[6]; [18]
  Plant response rating, Wheat: 0
[6]; [19]
  Plant response rating, Wheat: 0
[6]; [20]
  Wheat plant response rating: 0
[7]; [17]
  Pigweed plant response rating: 60
[7]; [18]
  Plant response rating, Pigweed: 70
[7]; [19]
  Plant response rating, Pigweed: 85
[7]; [20]
  Pigweed plant response rating: 65
[8]; [17]
  Crabgrass, Large plant response rating: 0
[8]; [18]
  Plant response rating, Crabgrass, Large: 10
[8]; [19]
  Plant response rating, Crabgrass, Large: 10
[8]; [20]
  Crabgrass, Large plant response rating: 5
[9]; [17]
  Oilseed Rape plant response rating: 0
[9]; [18]
  Plant response rating, Oilseed Rape: 5
[9]; [19]
  Plant response rating, Oilseed Rape: 5
[9]; [20]
  Oilseed Rape plant response rating: 5
[10]; [17]
  Galium plant response rating: 85
[10]; [18]
  Plant response rating, Galium: 90
[10]; [19]
  Plant response rating, Galium: 95
[10]; [20]
  Galium plant response rating: 90
[11]; [17]
  Lambsquarters plant response rating: 5
[11]; [18]
  Plant response rating, Lambsquarters: 65
[11]; [20]
  Lambsquarters plant response rating: 50
[12]; [17]
  Blackgrass plant response rating: 0
[12]; [18]
  Plant response rating, Blackgrass: 0
[12]; [19]
  Plant response rating, Blackgrass: 10
[12]; [20]
  Blackgrass plant response rating: 0
[13]; [17]
  Soybean plant response rating: 0
[13]; [18]
  Plant response rating, Soybean: 0
[13]; [19]
  Plant response rating, Soybean: 0
[13]; [20]
  Soybean plant response rating: 0
[14]; [17]
  Morningglory plant response rating: 5
[14]; [18]
  Plant response rating, Morningglory: 75
[14]; [19]
  Plant response rating, Morningglory: 75
[14]; [20]
  Morningglory plant response rating: 55
[15]; [17]
  Waterhemp plant response rating: 30
[15]; [18]
  Plant response rating, Waterhemp: 80
[15]; [20]
  Waterhemp plant response rating: 50
[16]; [17]
  Velvetleaf plant response rating: 5
[16]; [18]
  Plant response rating, Velvetleaf: 50
[16]; [19]
  Plant response rating, Velvetleaf: 70
[16]; [20]
  Velvetleaf plant response rating: 20

## Cc1ccc(-c2c(O)c(Br)nn(C)c2=O)c2ccccc12 [Compound 52]
[1]; [17]
  Johnsongrass plant response rating: 5
[1]; [18]
  Plant response rating, Johnsongrass: 10
[1]; [19]
  Plant response rating, Johnsongrass: 15
[1]; [20]
  Johnsongrass plant response rating: 10
[2]; [17]
  Barnyardgrass plant response rating: 5
[2]; [18]
  Plant response rating, Barnyardgrass: 5
[2]; [19]
  Plant response rating, Barnyardgrass: 10
[2]; [20]
  Barnyardgrass plant response rating: 5
[3]; [17]
  Nutsedge, Yellow plant response rating: 60
[3]; [18]
  Plant response rating, Nutsedge, Yellow: 90
[3]; [19]
  Plant response rating, Nutsedge, Yellow: 95
[3]; [20]
  Nutsedge, Yellow plant response rating: 80
[4]; [17]
  Foxtail, Giant plant response rating: 0
[4]; [18]
  Plant response rating, Foxtail, Giant: 10
[4]; [19]
  Plant response rating, Foxtail, Giant: 35
[4]; [20]
  Foxtail, Giant plant response rating: 5
[5]; [17]
  Ragweed plant response rating: 55
[5]; [18]
  Plant response rating, Ragweed: 80
[5]; [19]
  Plant response rating, Ragweed: 98
[5]; [20]
  Ragweed plant response rating: 65
[6]; [17]
  Wheat plant response rating: 0
[6]; [18]
  Plant response rating, Wheat: 0
[6]; [19]
  Plant response rating, Wheat: 0
[6]; [20]
  Wheat plant response rating: 0
[7]; [17]
  Pigweed plant response rating: 30
[7]; [18]
  Plant response rating, Pigweed: 10
[7]; [19]
  Plant response rating, Pigweed: 55
[7]; [20]
  Pigweed plant response rating: 5
[8]; [17]
  Crabgrass, Large plant response rating: 0
[8]; [18]
  Plant response rating, Crabgrass, Large: 5
[8]; [19]
  Plant response rating, Crabgrass, Large: 10
[8]; [20]
  Crabgrass, Large plant response rating: 0
[9]; [17]
  Oilseed Rape plant response rating: 0
[9]; [18]
  Plant response rating, Oilseed Rape: 0
[9]; [19]
  Plant response rating, Oilseed Rape: 0
[9]; [20]
  Oilseed Rape plant response rating: 0
[10]; [17]
  Galium plant response rating: 90
[10]; [18]
  Plant response rating, Galium: 100
[10]; [19]
  Plant response rating, Galium: 100
[10]; [20]
  Galium plant response rating: 100
[11]; [17]
  Lambsquarters plant response rating: 55
[11]; [18]
  Plant response rating, Lambsquarters: 75
[11]; [19]
  Plant response rating, Lambsquarters: 98
[11]; [20]
  Lambsquarters plant response rating: 60
[12]; [17]
  Blackgrass plant response rating: 0
[12]; [18]
  Plant response rating, Blackgrass: 30
[12]; [19]
  Plant response rating, Blackgrass: 30
[12]; [20]
  Blackgrass plant response rating: 10
[13]; [17]
  Soybean plant response rating: 0
[13]; [18]
  Plant response rating, Soybean: 0
[13]; [19]
  Plant response rating, Soybean: 0
[13]; [20]
  Soybean plant response rating: 0
[14]; [17]
  Morningglory plant response rating: 98
[14]; [18]
  Plant response rating, Morningglory: 100
[14]; [19]
  Plant response rating, Morningglory: 100
[14]; [20]
  Morningglory plant response rating: 100
[15]; [17]
  Waterhemp plant response rating: 10
[15]; [18]
  Plant response rating, Waterhemp: 10
[15]; [19]
  Plant response rating, Waterhemp: 55
[15]; [20]
  Waterhemp plant response rating: 10
[16]; [17]
  Velvetleaf plant response rating: 5
[16]; [18]
  Plant response rating, Velvetleaf: 55
[16]; [19]
  Plant response rating, Velvetleaf: 100
[16]; [20]
  Velvetleaf plant response rating: 25
